According to ChEMBL document CHEMBL2311503, “Synthesis and anti-angiogenic activity of benzothiazole, benzimidazole containing phthalimide derivatives” (Bioorg Med Chem Lett, 2013):
Calls of active or inactive are those of the source. No cut-off for these calls is given here.

Species: Gallus gallus
Test: Antiangiogenic activity in chicken embryo chorioallantoic membrane assessed as inhibition of growth of new vessels proximity at 10 uM after 6 hrs by CAM assay
Assay type: functional, tissue-based

For `O=C1c2ccccc2C(=O)N1c1nc2ccccc2[nH]1`, the inhibition was “Active”.

In the case of `O=C1c2ccccc2C(=O)N1c1nc2ccccc2s1`, the inhibition is reported as “Active”.

For `Cc1ccc2c(c1)C(=O)N(c1nc3ccccc3s1)C2=O`, the inhibition was “Active”.

`O=C1c2ccccc2C(=O)N1c1ccc2ncsc2c1` was tested, and the inhibition was “Active”.

`O=C1c2ccccc2C(=O)N1c1cccc2nsnc12` was tested, and the inhibition was “Active”.
